Patent US7517874B2 (priority 2007, dated 2009)

How the values were obtained:
[1] = target: T1, rat CB2 receptor (rCB2) (Rattus norvegicus, UniProt Q9QZN9); assay: cell-based; format: cell-based; settings: for +/− RCB2: agonist or inverse agonist at rCB2
T1 sequence (Q9QZN9 1-360): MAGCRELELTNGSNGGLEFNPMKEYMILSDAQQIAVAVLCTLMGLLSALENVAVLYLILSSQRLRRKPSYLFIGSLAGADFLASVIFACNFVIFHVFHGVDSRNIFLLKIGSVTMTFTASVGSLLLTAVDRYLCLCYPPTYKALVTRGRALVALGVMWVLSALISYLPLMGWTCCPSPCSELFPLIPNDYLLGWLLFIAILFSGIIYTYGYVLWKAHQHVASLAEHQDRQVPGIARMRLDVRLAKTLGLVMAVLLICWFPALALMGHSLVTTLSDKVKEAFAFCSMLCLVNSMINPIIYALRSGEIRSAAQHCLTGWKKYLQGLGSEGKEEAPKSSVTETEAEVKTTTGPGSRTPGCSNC
In short: (§1)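 Readout: LANCE TR-FRET cAMP, back-calculated from a concurrent standard curve and scaled between forskolin-only and forskolin + 1 μM CP55,940 wells. EC50 and intrinsic activity came from four-parameter fits.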

[2] = target: human CB1 receptor (hCB1) (Homo sapiens, UniProt P21554); assay: cell-based; format: cell-based; settings: for +/− HCB1: agonist or inverse agonist at hCB1
human CB1 receptor (hCB1), sequence (P21554 whole entry): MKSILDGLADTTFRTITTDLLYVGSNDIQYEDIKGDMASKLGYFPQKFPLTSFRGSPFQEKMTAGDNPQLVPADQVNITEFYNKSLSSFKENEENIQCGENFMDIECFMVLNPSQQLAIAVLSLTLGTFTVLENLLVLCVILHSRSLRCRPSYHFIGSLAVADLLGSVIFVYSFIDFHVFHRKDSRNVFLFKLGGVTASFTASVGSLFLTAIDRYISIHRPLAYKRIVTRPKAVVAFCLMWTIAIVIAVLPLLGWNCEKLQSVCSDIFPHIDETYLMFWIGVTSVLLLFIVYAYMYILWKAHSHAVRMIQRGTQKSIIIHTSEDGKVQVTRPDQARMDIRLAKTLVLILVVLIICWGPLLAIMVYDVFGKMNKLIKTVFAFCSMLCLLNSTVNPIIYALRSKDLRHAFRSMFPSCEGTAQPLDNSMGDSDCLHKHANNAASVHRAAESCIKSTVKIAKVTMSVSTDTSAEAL
In short: as §1

SMILES | +/− RCB2 [1] | EC50 [2] | EC50 [1] | +/− HCB1 [2]
CCNC(=O)[C@@H](NC(=O)c1nc(-c2ccccc2)n2c1CN(C)CCC2)C(C)(C)C [Compound 478, (S)-N-(1-(ethylamino)-3,3-dimethyl-1-oxobutan-2-yl)-8-methyl-3-phenyl-6,7,8,9-tetrahydro-5H-imidazo[1,5-a][1,4]diazepine-1-carboxamide] | + | > 10 µM |  | 
CN1CCCn2c(-c3ccccc3)nc(C(=O)N[C@H](C(=O)NCC3CCOCC3)C(C)(C)C)c2C1 [Compound 479, (S)-N-(3,3-dimethyl-1-oxo-1-((tetrahydro-2H-pyran-4-yl)methylamino)butan-2-yl)-8-methyl-3-phenyl-6,7,8,9-tetrahydro-5H-imidazo[1,5-a][1,4]diazepine-1-carboxamide] | + | > 10 µM |  | 
CN1CCCn2c(-c3ccccc3)nc(C(=O)N[C@H](C(=O)NC3CCC3)C(C)(C)C)c2C1 [Compound 480, (S)-N-(1-(cyclobutylamino)-3,3-dimethyl-1-oxobutan-2-yl)-8-methyl-3-phenyl-6,7,8,9-tetrahydro-5H-imidazo[1,5-a][1,4]diazepine-1-carboxamide] |  | > 10 µM | > 10 µM | 
CNC(=O)[C@@H](NC(=O)c1nc(-c2ccccc2)n2c1C[N+](C)(C)CCC2)C(C)(C)C [Compound 481, (S)-1-(3,3-dimethyl-1-(methylamino)-1-oxobutan-2-ylcarbamoyl)-8,8-dimethyl-3-phenyl-6,7,8,9-tetrahydro-5H-imidazo[1,5-a][1,4]diazepin-8-ium] |  | > 10 µM | > 10 µM | 
CNC(=O)[C@@H](NC(=O)c1nc(-c2ccc(Cl)cc2F)n2c1CN(c1ncccn1)CCC2)C(C)(C)C [Compound 482, 3-(4-chloro-2-fluorophenyl)-N-(3,3-dimethyl-1-(methylamino)-1-oxobutan-2-yl)-8-(pyrimidin-2-yl)-6,7,8,9-tetrahydro-5H-imidazo[1,5-a][1,4]diazepine-1-carboxamide] | + |  |  | +
CNC(=O)[C@@H](NC(=O)c1nc(-c2ccccc2)n2c1CN(c1ncccn1)CCC2)C(C)(C)C [Compound 483, (S)-N-(3,3-dimethyl-1-(methylamino)-1-oxobutan-2-yl)-3-phenyl-8-(pyrimidin-2-yl)-6,7,8,9-tetrahydro-5H-imidazo[1,5-a][1,4]diazepine-1-carboxamide] | − |  |  | +
CCCCCc1nc(C(=O)N[C@H](C(=O)NC)C(C)(C)C)c2n1CCCN(C)C2 [Compound 484, (S)-N-(3,3-dimethyl-1-(methylamino)-1-oxobutan-2-yl)-8-methyl-3-pentyl-6,7,8,9-tetrahydro-5H-imidazo[1,5-a][1,4]diazepine-1-carboxamide] |  | > 10 µM | > 10 µM | 
CCCc1nc(C(=O)N[C@H](C(=O)NC)C(C)(C)C)c2n1CCCN(C)C2 [Compound 485, (S)-N-(3,3-dimethyl-1-(methylamino)-1-oxobutan-2-yl)-8-methyl-3-propyl-6,7,8,9-tetrahydro-5H-imidazo[1,5-a][1,4]diazepine-1-carboxamide] | + | > 10 µM |  | 
CNC(=O)[C@@H](NC(=O)c1nc(CC(C)C)n2c1CN(C)CCC2)C(C)(C)C [Compound 486, (S)-N-(3,3-dimethyl-1-(methylamino)-1-oxobutan-2-yl)-3-isobutyl-8-methyl-6,7,8,9-tetrahydro-5H-imidazo[1,5-a][1,4]diazepine-1-carboxamide] | + | > 10 µM |  | 
CNC(=O)[C@@H](NC(=O)c1nc(C2CCCCC2)n2c1CN(C)CCC2)C(C)(C)C [Compound 487, (S)-3-cyclohexyl-N-(3,3-dimethyl-1-(methylamino)-1-oxobutan-2-yl)-8-methyl-6,7,8,9-tetrahydro-5H-imidazo[1,5-a][1,4]diazepine-1-carboxamide] | + | > 10 µM |  | 
CNC(=O)[C@@H](NC(=O)c1nc(CCC(C)(C)C)n2c1CN(C)CCC2)C(C)(C)C [Compound 488, (S)-N-(3,3-dimethyl-1-(methylamino)-1-oxobutan-2-yl)-3-(3,3-dimethylbutyl)-8-methyl-6,7,8,9-tetrahydro-5H-imidazo[1,5-a][1,4]diazepine-1-carboxamide] | + | > 10 µM |  | 
CNC(=O)[C@@H](NC(=O)c1nc(CCCOC)n2c1CN(C)CCC2)C(C)(C)C [Compound 489, (S)-N-(3,3-dimethyl-1-(methylamino)-1-oxobutan-2-yl)-3-(3-methoxypropyl)-8-methyl-6,7,8,9-tetrahydro-5H-imidazo[1,5-a][1,4]diazepine-1-carboxamide] | + | > 10 µM |  | 
CNC(=O)[C@@H](NC(=O)c1nc(CCC2CC2)n2c1CN(C)CCC2)C(C)(C)C [Compound 490, (S)-3-(2-cyclopropylethyl)-N-(3,3-dimethyl-1-(methylamino)-1-oxobutan-2-yl)-8-methyl-6,7,8,9-tetrahydro-5H-imidazo[1,5-a][1,4]diazepine-1-carboxamide] | + | > 10 µM |  | 
CCCCCCc1nc(C(=O)N[C@H](C(=O)NC)C(C)(C)C)c2n1CCCN(C)C2 [Compound 491, (S)-N-(3,3-dimethyl-1-(methylamino)-1-oxobutan-2-yl)-3-hexyl-8-methyl-6,7,8,9-tetrahydro-5H-imidazo[1,5-a][1,4]diazepine-1-carboxamide] | + | > 10 µM |  | 
CCc1nc(C(=O)N[C@H](C(=O)NC)C(C)(C)C)c2n1CCCN(C)C2 [Compound 492, (S)-N-(3,3-dimethyl-1-(methylamino)-1-oxobutan-2-yl)-3-ethyl-8-methyl-6,7,8,9-tetrahydro-5H-imidazo[1,5-a][1,4]diazepine-1-carboxamide] | − | > 10 µM |  | 
CNC(=O)[C@@H](NC(=O)c1nc(CCC2CCCCC2)n2c1CN(C)CCC2)C(C)(C)C [Compound 493, (S)-3-(2-cyclohexylethyl)-N-(3,3-dimethyl-1-(methylamino)-1-oxobutan-2-yl)-8-methyl-6,7,8,9-tetrahydro-5H-imidazo[1,5-a][1,4]diazepine-1-carboxamide] | − | > 10 µM |  | 
CNC(=O)[C@@H](NC(=O)c1nc(CCCC2CCCC2)n2c1CN(C)CCC2)C(C)(C)C [Compound 494, (S)-3-(3-cyclopentylpropyl)-N-(3,3-dimethyl-1-(methylamino)-1-oxobutan-2-yl)-8-methyl-6,7,8,9-tetrahydro-5H-imidazo[1,5-a][1,4]diazepine-1-carboxamide] | − | > 10 µM |  | 
CNC(=O)[C@@H](NC(=O)c1nc(CCc2ccsc2)n2c1CN(C)CCC2)C(C)(C)C [Compound 495, (S)-N-(3,3-dimethyl-1-(methylamino)-1-oxobutan-2-yl)-8-methyl-3-(2-(thiophen-3-yl)ethyl)-6,7,8,9-tetrahydro-5H-imidazo[1,5-a][1,4]diazepine-1-carboxamide] | + | > 10 µM |  | 
CNC(=O)[C@@H](NC(=O)c1nc(C(C)C)n2c1CN(C)CCC2)C(C)(C)C [Compound 496, (S)-N-(3,3-dimethyl-1-(methylamino)-1-oxobutan-2-yl)-3-isopropyl-8-methyl-6,7,8,9-tetrahydro-5H-imidazo[1,5-a][1,4]diazepine-1-carboxamide] | + | > 10 µM |  | 
CNC(=O)[C@@H](NC(=O)c1nc(C2CCCCCC2)n2c1CN(C)CCC2)C(C)(C)C [Compound 498, (S)-3-cycloheptyl-N-(3,3-dimethyl-1-(methylamino)-1-oxobutan-2-yl)-8-methyl-6,7,8,9-tetrahydro-5H-imidazo[1,5-a][1,4]diazepine-1-carboxamide] | + |  |  | +
CNC(=O)[C@@H](NC(=O)c1nc(C2CCC(C)CC2)n2c1CN(C)CCC2)C(C)(C)C (stereo partly drawn) [Compound 499, (S)-N-(3,3-dimethyl-1-(methylamino)-1-oxobutan-2-yl)-8-methyl-3-(4-methylcyclohexyl)-6,7,8,9-tetrahydro-5H-imidazo[1,5-a][1,4]diazepine-1-carboxamide] | + | > 10 µM |  | 
CNC(=O)[C@@H](NC(=O)c1nc(CCCN2CCOCC2)n2c1CN(C)CCC2)C(C)(C)C [Compound 500, (S)-N-(3,3-dimethyl-1-(methylamino)-1-oxobutan-2-yl)-8-methyl-3-(3-morpholinopropyl)-6,7,8,9-tetrahydro-5H-imidazo[1,5-a][1,4]diazepine-1-carboxamide] |  | > 10 µM | > 10 µM | 
CNC(=O)[C@@H](NC(=O)c1nc(CCCN2CCCCC2)n2c1CN(C)CCC2)C(C)(C)C [Compound 501, (S)-N-(3,3-dimethyl-1-(methylamino)-1-oxobutan-2-yl)-8-methyl-3-(3-(piperidin-1-yl)propyl)-6,7,8,9-tetrahydro-5H-imidazo[1,5-a][1,4]diazepine-1-carboxamide] | + | > 10 µM |  | 
CNC(=O)[C@@H](NC(=O)c1nc(CCCN2CCCC2)n2c1CN(C)CCC2)C(C)(C)C [Compound 502, (S)-N-(3,3-dimethyl-1-(methylamino)-1-oxobutan-2-yl)-8-methyl-3-(3-(pyrrolidin-1-yl)propyl)-6,7,8,9-tetrahydro-5H-imidazo[1,5-a][1,4]diazepine-1-carboxamide] | + | > 10 µM |  | 
CNC(=O)[C@@H](NC(=O)c1nc(C2CCNCC2)n2c1CN(C)CCC2)C(C)(C)C [Compound 503] | + |  |  | +
